# Test system: Plasmodium falciparum
# Experiment: GSK_TCMDC: Inhibition of Plasmodium falciparum 3D7 in whole erythrocytes, using parasite LDH activity as an index of growth.
# Format: functional, organism-based
# Conditions: Plasmodium falciparum, 3D7
row,Compound,XC50
1,COc1ccc(CCN(C)CCOc2ccc(NC(=O)c3ccc([N+](=O)[O-])c4c(=O)c5ccccc5[nH]c34)cc2)cc1OC,927 nM
2,O=C(Nc1cc(C(F)(F)F)cc(C(F)(F)F)c1)N1CCC(CCN2CCC(c3c[nH]c4ccccc34)CC2)CC1,1260 nM
3,CCOC(=O)CCCc1cc(NC2CCN(C)CC2)nc(Nc2ccc(C)cc2)n1,263 nM
4,COc1ccc(NC(=O)CSc2nc(-c3ccccc3Cl)ns2)cc1OC,759 nM
5,COc1ccc(CN(C)CCCOc2ccc(NC(=O)C=Cc3ccc(C(C)(C)C)cc3)cc2)cc1OC,855 nM
6,Cc1cc(Nc2c(C(N)=O)cnc3cc(-c4ccoc4)ccc23)ccc1N1CCN(C)CC1,797 nM
7,CCOc1ccc2[nH]c(C)cc(=NN=Cc3ccccc3F)c2c1,738 nM
8,Cc1nc(N)nc(N)c1OCCCCOc1ccccc1,53.5 nM
9,CCCNCc1ccc(-c2ccc(CN(Cc3cccs3)C(=O)C3CCN(C)CC3)cc2)nc1,665 nM
10,Fc1ccc2ncc(Cl)c(CCN3CCC(NCc4cc5c(cn4)OCCO5)CC3)c2c1,884 nM
11,Cc1cc(N[C@@H](Cc2ccccc2)C(=O)NCCOc2ccccc2)nc(Nc2ccccc2)n1,875 nM
12,Cc1cc(N)nc2ccc(-c3cccc(CN)c3)cc12,707 nM
13,O=C(c1ccc([N+](=O)[O-])o1)N1CCC(c2cn(Cc3cccc(F)c3)c3ccccc23)CC1,637 nM
14,CCCCCCn1c(Sc2ccc(C#N)c([N+](=O)[O-])c2)nnc1-c1ccc(N(C)C)cc1,1070 nM
15,CC(C)CC(=O)N1CCNC[C@@H]1C(=O)NCc1ccc(Cl)c(Cl)c1,950 nM
16,COc1cc(Cc2cnc3nc(N)nc(N)c3c2C)cc(OC)c1OC,64.2 nM
17,O=C(Nc1ccsc1)Nc1cccc(-c2cccc(-c3nc4cc(F)ccc4[nH]3)c2)c1,199 nM
18,CCc1c(CCNCCCCCCNCCc2ccccc2)ccc(OC)c1OC,800 nM
19,Oc1ccccc1CN(CCCN(Cc1ccccn1)Cc1ccccc1O)Cc1ccccn1,1060 nM
20,O=[N+]([O-])c1cnc(Nc2ccccc2O)nc1Nc1ccccc1O,897 nM
21,O=C(/C=C/c1ccc(Cl)c(Cl)c1)NCC1CCC(N2CCC(c3c[nH]c4ccccc34)CC2)CC1 (stereo not drawn),172 nM
22,O=C(C=Cc1ccc(F)c(Br)c1)N1CCC(CN2CCC(c3c[nH]c4ccccc34)CC2)CC1,745 nM
23,CCCCNCc1ccc(-c2nc(CN(C(=O)Nc3cc([N+](=O)[O-])ccc3F)C3Cc4ccccc4C3)cs2)cc1,1100 nM
24,Cc1cccc2nc(-c3cccc(-c4ccc(CN5CCCC5CN)cc4)c3)[nH]c12 (stereo not drawn),760 nM
25,Cc1nc(N)nc(N)c1C#CC1CCCC1,768 nM

row,Compound,XC50
1,O=C(NC1CCCCC1)N(Cc1ccc(-c2cccc(CNC3CCCC3)c2)cc1)C1CCN(Cc2ccccc2)CC1,785 nM
2,COc1ccc(CC2(c3ccc(F)cc3)N=C(N)N(CCCc3ccc(F)c(F)c3)C2=O)cc1 (stereo not drawn),779 nM
3,CC(C)[C@H](NC(=O)c1ccc(O)c(-c2ccc(Cl)c(Cl)c2)c1)C(=O)NCCN1CCCC1,929 nM
4,CCc1c(CCNCCCCCCNCCc2ccc(Br)cc2)ccc(O)c1O,903 nM
5,Cn1nc(-c2cccc(CNCc3ccccc3)c2)c2cnc(NC3CCCC3)nc21,1260 nM
6,Cc1cc(NC2CCCC2)nc(Nc2ccccc2)n1,985 nM
7,Fc1ccc(CNc2nc(-c3ccc(F)c(C(F)(F)F)c3)n(-c3cccc(C(F)(F)F)c3)n2)cc1,563 nM
8,Fc1ccc2[nH]ccc(=NN=CC=Cc3ccccc3)c2c1,681 nM
9,O=C(NCCN1CCOCC1)c1ccc(O)c(-c2cccc(C(F)(F)F)c2)c1,752 nM
10,O=C(Nc1ccc([N+](=O)[O-])cc1)Nc1cc(OCC(F)(F)F)cc(OCC(F)(F)F)c1,469 nM
11,CC(C)c1ccc2[nH]c(C(=O)NC3CCC(N4CCCc5ccc(C#N)cc5C4)CC3)cc2c1 (stereo not drawn),1090 nM
12,Cc1ccccc1Nc1nc(Nc2ccccc2)c2ccccc2n1,998 nM
13,O=C(NCCCCN1CCN(c2cccc3c2CCCC3)CC1)c1ccc(NC(=O)c2ccc(Cl)cc2)cc1,447 nM
14,CC(=O)c1ccc2c(c1)CCN(CCC1CCC(NC(=O)c3cc4ccccc4[nH]3)CC1)CC2 (stereo not drawn),982 nM
15,COc1cc(CNC[C@@H](O)[C@H](Cc2ccccc2)NC(=O)c2cc(C3CCCC3)cc(N3CCCS3(=O)=O)c2)cc(OC)c1,1240 nM
16,Cc1ccccc1C1CCN(c2ncc(C(=O)Nc3ccccc3)cc2Cl)CC1,1010 nM
17,CCCNc1ccc2nccc(CCN3CCC(NCc4ccc5c(c4)NC(=O)CS5)CC3)c2n1,580 nM
18,CCC(C)(C)c1ccc(N2C(N)=NC(N)=NC2(C)C)cc1,11.8 nM
19,Cc1cc(N/N=C/c2cccc([N+](=O)[O-])c2)c2ccc(C(F)(F)F)cc2n1,876 nM
20,CCN(CC)C(=S)N/N=C1/C(=O)Nc2c(C)cccc21,863 nM
21,O=C(N/C(=C/c1cccc([N+](=O)[O-])c1)c1nc2ccccc2[nH]1)c1cccc(Br)c1,616 nM
22,O=C(Nc1ccc(Cl)cc1)Nc1nc2cc([N+](=O)[O-])ccc2[nH]1,801 nM
23,O=S(=O)(Nc1ccc(CCN2CCC(N3CCCCC3)CC2)cc1)c1cccc2cccnc12,1060 nM
24,CNC(=O)c1cnc(Nc2ccc(N3CCN(C)CC3)c(C)c2)nc1NC,869 nM
25,COc1ccc2[nH]ccc(=NN=Cc3ccccc3F)c2c1,620 nM

row,Compound,XC50
1,CN1CCCc2ccc(NC(=O)c3ccc(-c4cc(C(F)(F)F)nn4C)s3)cc2C1,880 nM
2,NC(=O)NC(=O)C=Cc1ccco1,150 nM
3,COc1ccc2nccc(N(C)CC3(O)CCN(CCc4ccc5c(c4)OCCO5)CC3)c2n1,143 nM
4,Nc1nc(N)c2c(ccc3[nH]c(-c4ccccc4Cl)nc32)n1,231 nM
5,O=C(/C=C/c1ccc(Cl)c(Cl)c1)N1CCCC(CCCN2CCC(c3c[nH]c4ccccc34)CC2)C1 (stereo not drawn),1090 nM
6,CCOC(=O)c1ccc(OCc2ccc(-c3ccccc3)cc2)cc1,813 nM
7,CCCCCN1CCCN(Cc2cccc(NC(=O)c3ccc(Cl)c(Cl)c3)c2)CC1,927 nM
8,CNCCNCc1ccc(-c2ccc(-c3nc4cc(F)ccc4[nH]3)cc2)cc1,387 nM
9,CCOc1cc(C(=O)NC2CC(C)(C)NC(C)(C)C2)ccc1-c1nc2cc(Cl)ccc2[nH]1,992 nM
10,Clc1ccc2c(NCCc3ccccc3)ccnc2c1,488 nM
11,COc1ccc(CN2CCCN(Cc3cccc(NC(=O)c4ccc(Cl)c(Cl)c4)c3)CC2)cc1,973 nM
12,CC(C)(C)OC(=O)Cn1cnc2cc(NC(=O)c3cc([N+](=O)[O-])cc([N+](=O)[O-])c3)ccc21,312 nM
13,OCC(c1ccccc1)n1c(COc2ccc(Cl)cc2)nc2c(OCCCN3CCCCC3)cccc21 (stereo not drawn),916 nM
14,CC(CN1CCN(C)CC1)C(=O)Nc1ccc(-c2ccc(-c3nc4cc(C(F)(F)F)ccc4[nH]3)cc2)cc1 (stereo not drawn),415 nM
15,Cc1onc(-c2ccccc2)c1-c1nc(NC2CCCC(C)C2)no1 (stereo not drawn),836 nM
16,CC[C@@H]([C@@H](CC(C)C)C(=O)N[C@@H](CCCCNC(=O)OCc1ccccc1)C(=O)Nc1ccccn1)N(O)C=O,108 nM
17,Cc1ccc(C(O)CNc2ccnc(Nc3cccc(-c4csc(C)n4)c3)n2)cc1 (stereo not drawn),826 nM
18,Cn1nc(-c2cccc(CNCCc3cccs3)c2)c2cnc(NC3CCCC3)nc21,1890 nM
19,CC(=O)c1sc(Cc2nc3ccccc3s2)nc1C,1070 nM
20,CC(C)n1cc(CN2CCCC(C(=O)Nc3cccc(-c4cc5ccccc5[nH]4)c3)C2)cn1 (stereo not drawn),999 nM
21,O=C(COc1ccc(Cl)cc1)N1CCC(CN2CCC(c3c[nH]c4ccccc34)CC2)CC1,1100 nM
22,COc1ccc(O)c(C(=O)c2cc(C#N)c(=O)n(-c3ccc(Oc4ccccc4)cc3)c2)c1,737 nM
23,Fc1ccc2[nH]c(-c3cccc(-c4ccc(CN5CCN(c6ccncc6)CC5)cc4)c3)nc2c1,211 nM
24,O=C(Nc1cccc(Cl)c1Cl)Nc1ccnc2ccccc12,745 nM
25,O=C(NCc1ccc(C(=O)NC2CCCCCC2)cc1)c1ccc(O)c(-c2ccc(Cl)c(Cl)c2)c1,1060 nM

row,Compound,XC50
1,CCOc1ccccc1N1CCN(CCCNC(=O)/C(=C/C=C/c2cc3cc(Cl)c(Cl)cc3[nH]2)OC)CC1,851 nM
2,O=C(Nc1cccc(-c2ccc(NCCCN3CCCC3)nc2)c1)c1ccccc1,865 nM
3,CCCCCC(C)C(C)c1cc(O)c2c(c1)OC(C)(C)CC2=Cc1ccncc1 (stereo not drawn),213 nM
4,Cc1cc(-c2cc3nc4c(c(O)n3n2)CCCC4)c(C)o1,821 nM
5,CC(C)(C)NC(=O)C(c1ccc(F)cc1)N(C(=O)c1ccc(CN2CCOCC2)o1)c1ccc(C2CCCCC2)cc1 (stereo not drawn),925 nM
6,CCOc1ccc(Nc2ccc3nonc3c2S(=O)(=O)Nc2ccc(OCC)cc2)cc1,505 nM
7,CCN(CC)CCCOC(=O)c1ccc2c(c1)-c1ccc(C(=O)OCCCN(CC)CC)c3cccc-2c13,933 nM
8,OC(CNCc1ccccc1OC(F)F)c1cccc(C(F)(F)F)c1 (stereo not drawn),765 nM
9,COc1ccc2[nH]c(C)cc(=NN=Cc3ccc(F)cc3)c2c1,191 nM
10,Oc1ccc(CCNc2nc(NCc3ccccc3-c3ccc(F)cc3)nc(N3CCNCC3)n2)cc1,1070 nM
11,Cc1cc(C(F)(F)F)cc(-n2ncc(-c3ccc(C(=O)NCCNCc4ccccc4)cc3)c2N)n1,1070 nM
12,CCC(C)CN1CCN(c2ccc(NC(=O)c3cccs3)cc2)CC1C (stereo not drawn),655 nM
13,COc1cc(CCNc2nc(NCc3cccc4ccccc34)nc(N3CCC(N)CC3)n2)ccc1O,787 nM
14,CCOc1cc(C)ccc1C1CCN(CCCCNC(=O)c2cnc(-c3ccc(C(F)(F)F)cc3)[nH]2)CC1,771 nM
15,CN1CCC(C(=O)N(Cc2ccc(-c3ccc(CNCCc4ccc(S(C)(=O)=O)cc4)cn3)cc2)C2CCN(Cc3ccccc3)CC2)CC1,673 nM
16,CC1CNC(c2ccc(NC(=O)c3ccc(C(=O)Nc4ccc(C5=NC(C)CN5)cc4)cc3)cc2)=N1 (stereo not drawn),33.6 nM
17,Cc1noc(C)c1-c1ccc2c(Nc3ccccc3N3CCOCC3)c(C(=O)NCc3ccccc3)cnc2c1,1180 nM
18,O=C(c1ccc(Cl)cc1)N1CCOC(CCN2CCC(c3ccccc3)CC2)(c2ccc(Cl)c(Cl)c2)C1 (stereo not drawn),238 nM
19,CCN(CCO)CCc1cccc(Nc2nccc(-c3c(-c4ccc(NC(=O)N(CC)CC)cc4)nn4ccccc34)n2)c1,1110 nM
20,CCCCCCCCCCN1C(=O)C2C(CCCCNC(C)=O)NC3(C(=O)N(Cc4ccc(C(C)(C)C)cc4)c4ccccc43)C2C1=O (stereo not drawn),993 nM
21,CC(C)(C)OC(=O)NCc1ccc(Nc2nnc(-c3cccc(OCC(=O)NCc4cc(C(F)(F)F)cc(C(F)(F)F)c4)c3)o2)cc1,832 nM
22,Nc1nccc2ccc(-c3ccnc(NCc4cccnc4)n3)cc12,462 nM
23,COC(=O)c1sc2ccccc2c1NC(=O)c1ccc(C)c(C)c1,1070 nM

# Reference: ChEMBL document CHEMBL1157539, “Thousands of chemical starting points for antimalarial lead identification” (Nature, 2010)
